Assays:
[1] = test system: RPMI-8226; assay: Growth inhibition of human RPMI8226 cells at 10 uM incubated for 48 hrs by sulforhodamine B assay relative to control; format: functional; conditions: RPMI-8226, 48 h, read-out: GI
[2] = target: Cyclin-dependent kinase 2/cyclin E1 (Homo sapiens, UniProt P24941); assay: Inhibition of human recombinant CDK2/Cyclin E expressed in baculovirus infected Sf9 cells using histone H1 substrate in presence of [gamma33P]ATP
[3] = test system: PC-3; assay: Growth inhibition of human PC3 cells at 10 uM incubated for 48 hrs by sulforhodamine B assay relative to control; format: functional; conditions: PC-3, 48 h, read-out: GI
[4] = test system: OVCAR-5; assay: Growth inhibition of human OVCAR5 cells at 10 uM incubated for 48 hrs by sulforhodamine B assay relative to control; format: functional; conditions: OVCAR-5, 48 h, read-out: GI
[5] = test system: NCI-H522; assay: Growth inhibition of human NCI-H522 cells at 10 uM incubated for 48 hrs by sulforhodamine B assay relative to control; format: functional; conditions: NCI-H522, 48 h, read-out: GI
[6] = test system: OVCAR-3; assay: Growth inhibition of human OVCAR3 cells at 10 uM incubated for 48 hrs by sulforhodamine B assay relative to control; format: functional; conditions: OVCAR-3, 48 h, read-out: GI
[7] = test system: HCT-116; assay: Growth inhibition of human HCT116 cells at 10 uM incubated for 48 hrs by sulforhodamine B assay relative to control; format: functional; conditions: HCT-116, 48 h, read-out: GI
[8] = test system: CAKI-1; assay: Growth inhibition of human Caki1 cells at 10 uM incubated for 48 hrs by sulforhodamine B assay relative to control; format: functional; conditions: CAKI-1, 48 h, read-out: GI
[9] = test system: K562; assay: Growth inhibition of human K562 cells at 10 uM incubated for 48 hrs by sulforhodamine B assay relative to control; format: functional; conditions: K562, 48 h, read-out: GI
[10] = test system: UO-31; assay: Growth inhibition of human UO31 cells at 10 uM incubated for 48 hrs by sulforhodamine B assay relative to control; format: functional; conditions: UO-31, 48 h, read-out: GI
[11] = test system: SK-OV-3; assay: Growth inhibition of human SKOV3 cells at 10 uM incubated for 48 hrs by sulforhodamine B assay relative to control; format: functional; conditions: SK-OV-3, 48 h, read-out: GI
[12] = test system: RXF 393; assay: Growth inhibition of human RXF393 cells at 10 uM incubated for 48 hrs by sulforhodamine B assay relative to control; format: functional; conditions: RXF 393, 48 h, read-out: GI
[13] = test system: OVCAR-8; assay: Growth inhibition of human OVCAR8 cells at 10 uM incubated for 48 hrs by sulforhodamine B assay relative to control; format: functional; conditions: OVCAR-8, 48 h, read-out: GI
[14] = target: CDK9/cyclin T1 (Homo sapiens, UniProt P50750); assay: Inhibition of human full length N-terminal GST-HIS6 fused CDK9 (M1 to F372 residues)/N-terminal HIS6-fused Cyclin-T1 (M1 to K726 residues) co-expressed in Sf9 cells using (YSPTSPS)2KK as substrate in presence of [gamma33P]ATP
[15] = test system: T47D; assay: Growth inhibition of human T47D cells at 10 uM incubated for 48 hrs by sulforhodamine B assay relative to control; format: functional; conditions: read-out: GI
[16] = test system: OVCAR-4; assay: Growth inhibition of human OVCAR4 cells at 10 uM incubated for 48 hrs by sulforhodamine B assay relative to control; format: functional; conditions: OVCAR-4, 48 h, read-out: GI
[17] = test system: SR; assay: Growth inhibition of human SR cells at 10 uM incubated for 48 hrs by sulforhodamine B assay relative to control; format: functional; conditions: read-out: GI
[18] = target: Carbonic anhydrase 9 (Homo sapiens, UniProt Q16790); assay: Inhibition of recombinant human carbonic anhydrase 9 preincubated for 15 mins by phenol red dye based stopped flow CO2 hydration assay
[19] = test system: SN12C; assay: Growth inhibition of human SN12C cells at 10 uM incubated for 48 hrs by sulforhodamine B assay relative to control; format: functional; conditions: read-out: GI
[20] = test system: NCI-H460; assay: Growth inhibition of human NCI-H460 cells at 10 uM incubated for 48 hrs by sulforhodamine B assay relative to control; format: functional; conditions: NCI-H460, 48 h, read-out: GI
[21] = test system: SW-620; assay: Growth inhibition of human SW620 cells at 10 uM incubated for 48 hrs by sulforhodamine B assay relative to control; format: functional; conditions: SW-620, 48 h, read-out: GI
[22] = test system: MDA-MB-231; assay: Growth inhibition of human MDA-MB-231 cells at 10 uM incubated for 48 hrs by sulforhodamine B assay relative to control; format: functional; conditions: MDA-MB-231, 48 h, read-out: GI
[23] = test system: IGROV-1; assay: Growth inhibition of human IGROV1 cells at 10 uM incubated for 48 hrs by sulforhodamine B assay relative to control; format: functional; conditions: IGROV-1, 48 h, read-out: GI
[24] = test system: MCF7; assay: Growth inhibition of human MCF7 cells at 10 uM incubated for 48 hrs by sulforhodamine B assay relative to control; format: functional; conditions: MCF7, 48 h, read-out: GI
[25] = target: Carbonic anhydrase 2 (Homo sapiens, UniProt P00918); assay: Inhibition of recombinant human carbonic anhydrase 2 preincubated for 15 mins by phenol red dye based stopped flow CO2 hydration assay
[26] = test system: HCT-15; assay: Growth inhibition of human HCT15 cells at 10 uM incubated for 48 hrs by sulforhodamine B assay relative to control; format: functional; conditions: HCT-15, 48 h, read-out: GI
[27] = test system: SNB-75; assay: Growth inhibition of human SNB75 cells at 10 uM incubated for 48 hrs by sulforhodamine B assay relative to control; format: functional; conditions: SNB-75, 48 h, read-out: GI
[28] = test system: M14; assay: Growth inhibition of human M14 cells at 10 uM incubated for 48 hrs by sulforhodamine B assay relative to control; format: functional; conditions: M14, 48 h, read-out: GI
[29] = test system: SK-MEL-5; assay: Growth inhibition of human SK-MEL-5 cells at 10 uM incubated for 48 hrs by sulforhodamine B assay relative to control; format: functional; conditions: SK-MEL-5, 48 h, read-out: GI
[30] = test system: DU-145; assay: Growth inhibition of human DU145 cells at 10 uM incubated for 48 hrs by sulforhodamine B assay relative to control; format: functional; conditions: DU-145, 48 h, read-out: GI
[31] = test system: Malme-3M; assay: Growth inhibition of human MALME-3M cells at 10 uM incubated for 48 hrs by sulforhodamine B assay relative to control; format: functional; conditions: read-out: GI
[32] = test system: NCI-H226; assay: Growth inhibition of human NCI-H226 cells at 10 uM incubated for 48 hrs by sulforhodamine B assay relative to control; format: functional; conditions: NCI-H226, 48 h, read-out: GI
[33] = test system: U-251; assay: Growth inhibition of human U251 cells at 10 uM incubated for 48 hrs by sulforhodamine B assay relative to control; format: functional; conditions: U-251, 48 h, read-out: GI
[34] = test system: MOLT-4; assay: Growth inhibition of human MOLT4 cells at 10 uM incubated for 48 hrs by sulforhodamine B assay relative to control; format: functional; conditions: MOLT-4, 48 h, read-out: GI
[35] = test system: SF-539; assay: Growth inhibition of human SF539 cells at 10 uM incubated for 48 hrs by sulforhodamine B assay relative to control; format: functional; conditions: SF-539, 48 h, read-out: GI

Chain of CDK9/cyclin T1 (O60563 whole entry, the tested form may be a part): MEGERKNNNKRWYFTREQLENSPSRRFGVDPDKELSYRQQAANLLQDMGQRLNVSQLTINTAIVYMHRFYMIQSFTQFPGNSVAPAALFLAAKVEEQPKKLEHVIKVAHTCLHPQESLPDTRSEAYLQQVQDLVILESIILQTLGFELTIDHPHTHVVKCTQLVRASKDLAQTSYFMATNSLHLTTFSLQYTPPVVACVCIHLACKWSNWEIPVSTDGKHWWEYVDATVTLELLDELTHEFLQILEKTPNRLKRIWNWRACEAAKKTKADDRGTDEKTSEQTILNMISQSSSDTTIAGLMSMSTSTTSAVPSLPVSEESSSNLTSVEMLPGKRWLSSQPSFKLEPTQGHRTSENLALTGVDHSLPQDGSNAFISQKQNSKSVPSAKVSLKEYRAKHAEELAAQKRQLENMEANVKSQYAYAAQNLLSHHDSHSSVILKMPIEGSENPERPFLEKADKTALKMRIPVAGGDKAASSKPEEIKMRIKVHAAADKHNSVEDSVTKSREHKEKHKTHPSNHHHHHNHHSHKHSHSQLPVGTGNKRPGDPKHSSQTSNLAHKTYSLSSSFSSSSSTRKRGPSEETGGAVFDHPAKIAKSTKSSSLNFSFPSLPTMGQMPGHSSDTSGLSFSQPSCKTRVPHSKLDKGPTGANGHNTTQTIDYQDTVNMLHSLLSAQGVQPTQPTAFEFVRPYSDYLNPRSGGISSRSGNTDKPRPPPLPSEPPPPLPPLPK
Chain of CDK9/cyclin T1 (P50750 whole entry, the tested form may be a part): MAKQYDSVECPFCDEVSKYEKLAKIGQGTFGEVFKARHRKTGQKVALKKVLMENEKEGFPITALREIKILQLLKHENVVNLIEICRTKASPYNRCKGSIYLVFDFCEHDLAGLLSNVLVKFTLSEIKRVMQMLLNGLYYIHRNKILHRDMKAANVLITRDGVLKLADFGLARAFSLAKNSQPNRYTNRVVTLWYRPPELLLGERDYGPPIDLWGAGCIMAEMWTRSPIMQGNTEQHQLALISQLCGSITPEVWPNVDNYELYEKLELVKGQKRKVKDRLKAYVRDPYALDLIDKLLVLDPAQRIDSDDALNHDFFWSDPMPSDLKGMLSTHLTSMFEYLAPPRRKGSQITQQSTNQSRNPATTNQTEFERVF

NS(=O)(=O)c1ccc(N/N=C2\C(=O)N(Cc3ccccc3)c3ccc(Cl)cc32)cc1
inhibition of growth at 10 µM [1]: 10% | IC50 [2]: > 10000 nM | inhibition of growth at 10 µM [3]: 16% | inhibition of growth at 10 µM [4]: 13% | inhibition of growth at 10 µM [5]: 31% | inhibition of growth at 10 µM [6]: 11% | inhibition of growth at 10 µM [7]: 31% | inhibition of growth at 10 µM [8]: 36% | inhibition of growth at 10 µM [9]: 18% | inhibition of growth at 10 µM [10]: 19% | inhibition of growth at 10 µM [11]: 26% | inhibition of growth at 10 µM [12]: 55% | inhibition of growth at 10 µM [13]: 35% | IC50 [14]: > 10000 nM | inhibition of growth at 10 µM [15]: 21% | inhibition of growth at 10 µM [16]: 71% | inhibition of growth at 10 µM [17]: 40% | Ki [18]: 19.6 nM | inhibition of growth at 10 µM [19]: 13% | inhibition of growth at 10 µM [20]: 35% | inhibition of growth at 10 µM [21]: 20% | inhibition of growth at 10 µM [22]: 24% | inhibition of growth at 10 µM [23]: 16% | inhibition of growth at 10 µM [24]: 25% | Ki [25]: 52.7 nM | inhibition of growth at 10 µM [26]: 11% | inhibition of growth at 10 µM [27]: 22% | inhibition of growth at 10 µM [28]: 12% | inhibition of growth at 10 µM [29]: 20% | inhibition of growth at 10 µM [30]: 13% | inhibition of growth at 10 µM [31]: 30% | inhibition of growth at 10 µM [32]: 66% | inhibition of growth at 10 µM [33]: 18% | inhibition of growth at 10 µM [34]: 28% | inhibition of growth at 10 µM [35]: 39%

CCOC(=O)CN1C(=O)/C(=N\Nc2ccc(S(N)(=O)=O)cc2)c2cc(Br)ccc21
inhibition of growth at 10 µM [1]: 21% | IC50 [2]: > 10000 nM | inhibition of growth at 10 µM [3]: 29% | inhibition of growth at 10 µM [4]: 14% | inhibition of growth at 10 µM [5]: 29% | inhibition of growth at 10 µM [6]: 15% | inhibition of growth at 10 µM [7]: 86% | inhibition of growth at 10 µM [8]: 14% | inhibition of growth at 10 µM [9]: 35% | inhibition of growth at 10 µM [10]: 13% | inhibition of growth at 10 µM [11]: 18% | inhibition of growth at 10 µM [12]: 57% | inhibition of growth at 10 µM [13]: 44% | IC50 [14]: > 10000 nM | inhibition of growth at 10 µM [15]: 22% | inhibition of growth at 10 µM [16]: 69% | inhibition of growth at 10 µM [17]: 25% | Ki [18]: 65.4 nM | inhibition of growth at 10 µM [19]: 12% | inhibition of growth at 10 µM [20]: 56% | inhibition of growth at 10 µM [21]: 37% | inhibition of growth at 10 µM [22]: 33% | inhibition of growth at 10 µM [23]: 27% | inhibition of growth at 10 µM [24]: 16% | Ki [25]: 630 nM | inhibition of growth at 10 µM [26]: 15% | inhibition of growth at 10 µM [27]: 22% | inhibition of growth at 10 µM [28]: 12% | inhibition of growth at 10 µM [29]: 12% | inhibition of growth at 10 µM [30]: 21% | inhibition of growth at 10 µM [31]: 21% | inhibition of growth at 10 µM [32]: 14% | inhibition of growth at 10 µM [33]: 14% | inhibition of growth at 10 µM [34]: 23% | inhibition of growth at 10 µM [35]: 84%

Source: ChEMBL document CHEMBL4311999, “3-Hydrazinoisatin-based benzenesulfonamides as novel carbonic anhydrase inhibitors endowed with anticancer activity: Synthesis, in vitro biological evaluation and in silico insights” (Eur J Med Chem, 2019)
